Test systems include NCI-H522 lung; UO-31 renal; SK-MEL-5 melanoma; TK-10 renal; RXF 393 renal; NCI-H23 lung; PC-3 prostate; NCI-H460 lung; SK-OV-3 ovarian; A498 renal.
Holding throughout (experiment): NCI-60 cell line screen, 48 h

Among the data in PubChem BioAssay (NCI) are TGI and GI50 values, retold here.

Each structure is given as a SMILES string.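 How tested: cells in 96-well plates exposed to compound for 48 hours at five concentrations. Abbreviation: GI50, concentration required for 50% inhibition of growth. At the TGI there is no net growth.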 Where only a bound is given, the exact number is not on record here.

With `Clc1ccccc1C(SCc1ccccc1)SCc1ccccc1`, the TGI in the assay with NCI-H522 lung, in the assay with UO-31 renal, in the assay on SK-MEL-5 melanoma, with TK-10 renal, in the assay with RXF 393 renal and with NCI-H23 lung was greater than 100 µM throughout. In addition, the TGI in the assay with PC-3 prostate and with NCI-H460 lung was greater than 100 µM in each case.

Regarding `FC(F)(F)c1cccc(Nc2nc(-c3ccccc3)nc3ncccc23)c1`, the GI50 with SK-OV-3 ovarian was 11 µM; with A498 renal, 1.7 µM; with UO-31 renal, 4.86 µM; in the assay on SK-MEL-5 melanoma it was 4.04 µM; with TK-10 renal, 2.61 µM; in the assay with RXF 393 renal, 2.21 µM. The GI50 in the assay with NCI-H23 lung was 5.03 µM; in the assay with PC-3 prostate it was 3.34 µM; in the assay on NCI-H460 lung, 3.45 µM. The TGI stood at 24 µM with SK-OV-3 ovarian; 5.21 µM with A498 renal; 21.8 µM in the assay on UO-31 renal; 30.8 µM in the assay with SK-MEL-5 melanoma; 10.5 µM in the assay with TK-10 renal; 5.66 µM in the assay on RXF 393 renal. The TGI with NCI-H23 lung was 28.4 µM; with PC-3 prostate, 13.2 µM; with NCI-H460 lung, 12.6 µM.

As for `COC1/C=C/OC2(C)Oc3c(C)c(O)c4c(O)c(c(/C=N/Nc5ccc([N+](=O)[O-])cc5[N+](=O)[O-])c(O)c4c3C2=O)NC(=O)C(C)=C/C=C/C(C)C(O)C(C)C(O)C(C)C(OC(C)=O)C1C` (centres undefined), the GI50 is 10.6 µM in the assay on SK-OV-3 ovarian; 6.87 µM in the assay with A498 renal; 8.71 µM with UO-31 renal; 1.29 µM with SK-MEL-5 melanoma; 0.899 µM with RXF 393 renal; 1.7 µM in the assay on NCI-H23 lung. The GI50 in the assay with PC-3 prostate is 1.34 µM; in the assay with NCI-H460 lung, 5.22 µM. Moreover, the TGI is 31.1 µM in the assay on SK-OV-3 ovarian; 14 µM in the assay with A498 renal; 23.6 µM in the assay on UO-31 renal; 3.75 µM in the assay on SK-MEL-5 melanoma; 1.66 µM with RXF 393 renal; 7.02 µM in the assay on NCI-H23 lung. In addition, the TGI in the assay on PC-3 prostate was 3.92 µM; with NCI-H460 lung, 14.7 µM.

For `CC(C)=CCC\C(C)=C/C=C/C(C)=C\C=C\C(C)=C/C=C/C=C(C)\C=C\C=C(C)/C=C/C=C(/C)CCC=C(C)C`, the TGI with SK-OV-3 ovarian, with A498 renal, in the assay on UO-31 renal, in the assay with SK-MEL-5 melanoma, in the assay on TK-10 renal and with RXF 393 renal was greater than 100 µM in each case. The same compound yielded a TGI in the assay on PC-3 prostate greater than 100 µM.

In the case of `Cc1ccc(NC(=O)Nc2ccc(-c3cccnc3)cc2N2CCC(CO)CC2)cc1`, the GI50 in the assay with SK-OV-3 ovarian was 3.93 µM; in the assay with NCI-H522 lung it was 1.66 µM; in the assay with SK-MEL-5 melanoma, 1.68 µM; in the assay with TK-10 renal, 2.04 µM; with RXF 393 renal, 2.18 µM; in the assay with PC-3 prostate, 5.6 µM. Also, in the assay on NCI-H460 lung, the GI50 is 3.19 µM. Further, the TGI in the assay with SK-OV-3 ovarian is greater than 100 µM; with NCI-H522 lung, 5.12 µM; with SK-MEL-5 melanoma, 3.27 µM; with TK-10 renal, 5.54 µM; in the assay with RXF 393 renal it was 4.69 µM; in the assay with PC-3 prostate, greater than 100 µM. In the assay with NCI-H460 lung, this compound displayed a TGI greater than 100 µM.

In the case of `CO/C(=N\N=C\c1ccc(C(F)(F)F)cc1)c1ccncc1`, the TGI in the assay with NCI-H522 lung, in the assay on UO-31 renal, with TK-10 renal, with RXF 393 renal, with NCI-H23 lung and with PC-3 prostate was greater than 10 µM in each case. In the assay on NCI-H460 lung, this compound registered a TGI greater than 10 µM.

In the case of `COc1cnc2c(c1)C(=O)c1c-2n(CCCN2CCOCC2)c(=O)c2cc(F)ccc12`, the GI50 with SK-OV-3 ovarian was 0.282 µM; with A498 renal, 0.172 µM; in the assay with SK-MEL-5 melanoma, 0.169 µM; in the assay on TK-10 renal, 0.489 µM; in the assay with RXF 393 renal, 0.226 µM; with NCI-H23 lung, 0.284 µM. Further, the values for the GI50 in the assay on PC-3 prostate and with NCI-H460 lung were 0.369 µM and 0.0573 µM, respectively. In addition, the TGI in the assay on SK-OV-3 ovarian worked out at 1.92 µM; in the assay on A498 renal, 0.911 µM; in the assay on SK-MEL-5 melanoma, 0.446 µM; in the assay on TK-10 renal it was 16.3 µM; in the assay with RXF 393 renal, 0.913 µM; with NCI-H23 lung it was 1.84 µM. Further, the TGI in the assay with PC-3 prostate was greater than 100 µM; in the assay with NCI-H460 lung, 0.487 µM.

For the compound `CCC(=O)[C@H](C)[C@@H](OC(=O)[C@H](C)CC)[C@H](C)[C@H]1OC(CC)=C(C)C(=O)[C@@H]1C`, the GI50 in the assay on SK-OV-3 ovarian is 37.1 µM; with A498 renal, 25.2 µM; in the assay with UO-31 renal, 24 µM; in the assay with SK-MEL-5 melanoma, 15.3 µM; with TK-10 renal, 30.7 µM; in the assay on RXF 393 renal it was 21.5 µM. Besides, the GI50 is 19.6 µM in the assay on NCI-H23 lung, 16.8 µM in the assay with PC-3 prostate and 15.7 µM in the assay on NCI-H460 lung. In addition, the TGI with SK-OV-3 ovarian is greater than 100 µM; in the assay on A498 renal, 73 µM; in the assay with UO-31 renal it was 66.6 µM; with SK-MEL-5 melanoma it was 28.8 µM; with TK-10 renal, 88.9 µM; in the assay on RXF 393 renal, 46.4 µM. For the same compound, the TGI in the assay on NCI-H23 lung was 92.4 µM; in the assay on PC-3 prostate, greater than 100 µM; in the assay with NCI-H460 lung, 36.2 µM.
